Test results taken from US10920265B2, “Compounds and methods for detection of enzymes that remove methyl succinyl groups from epsilon-amino lysine moieties” (Enzo Life Sciences, Inc., priority 2011, dated 2021).
*: point of attachment. AMC = Cc1cc(=O)oc2cc(N*)ccc12

Target: T1, SIRT5 (Homo sapiens, UniProt Q9NXA8)
T1 sequence (Q9NXA8 37-310): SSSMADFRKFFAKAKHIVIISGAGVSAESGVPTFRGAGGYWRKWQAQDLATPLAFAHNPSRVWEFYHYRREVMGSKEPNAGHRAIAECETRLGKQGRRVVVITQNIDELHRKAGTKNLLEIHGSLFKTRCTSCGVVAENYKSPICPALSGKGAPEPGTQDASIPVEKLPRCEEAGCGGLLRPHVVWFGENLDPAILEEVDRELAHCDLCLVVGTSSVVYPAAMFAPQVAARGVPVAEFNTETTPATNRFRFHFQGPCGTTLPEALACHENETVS
Experiment: SIRT5 desuccinylation/deacetylation of fluorogenic lysyl substrates, trypsin developer
Assay type: biochemical
Set-up: purchased Enzo Life Sciences BML-SE555
Conditions: for Dependence of SIRT5 initial rate on substrate concentration: 20 min. at 37° C.
Procedure: FIG. 3 is graphs showing that SIRT5 catalyzes NAD^+-dependent desuccinylation of Ac-Lys(ε-succinyl)-AMC far more efficiently than NAD^+-dependent deacetylation of Ac-Arg-His-Lys-Lys(ε-acetyl)-AMC. Fifty μl reactions in Assay Buffer (50 mM Tris/HCl, pH 8.0, 137 mM NaCl, 2.7 mM KCl, 1 mM MgCl2, 1 mg/ml BSA) included 50 μM of either Ac-Lys(ε-succinyl)-AMC or Ac-Arg-His-Lys-Lys(ε-acetyl)-AMC, and, where indicated, 500 μM NAD^+ and 5 μg recombinant human SIRT5 (Enzo Life Sciences Cat. # BML-SE555). […] AMC fluorescence was read in a Cytofluor II plate-reading fluorimeter (Perseptive Biosystems) at wavelengths 360 nm (excitation)/460 nm (emission), Gain 54. Data represent the mean of two (No Enzyme) or three (+SIRT5) determinations and error bars the standard deviations. Panels A and B present the same data, but with the +SIRT5/+NAD^+/Ac-Lys(ε-succinyl)-AMC bar omitted from B to show the detail on the remaining bars. Statistically significant differences (Student's t-test) are indicated by asterisks as follows: *: p<0.02 vs. corresponding No Enzyme control; **: p<0.001 vs. corresponding −NAD^+ control; ***: p<3×10^−6 vs. both No Enzyme and −NAD^+ controls.
FIG. 4 is a graph showing that Ac-Lys(Succ.)-AMC enables SIRT5 assay at low enzyme concentrations. Fifty μl reactions in Assay Buffer (50 mM Tris/HCl, pH 8.0, 137 mM NaCl, 2.7 mM KCl, 1 mM MgCl2, 1 mg/ml BSA) included 2 or 10 μM Ac-Lys(ε-succinyl)-AMC, 500 μM NAD^+ and, where indicated, 5 ng recombinant human SIRT5 (Enzo Life Sciences Cat. # BML-SE555). […] AMC fluorescence was read in a Synergy 2 plate-reading fluorimeter (BioTek) at wavelengths 360 nm (excitation)/460 nm (emission), Gain 40. Data represent the mean of two (No Enzyme) or three (5 ng SIRT5) determinations and error bars the standard deviations. Statistically significant differences (Student's t-test) are indicated by asterisks as follows: *: p=0.002; **: p=0.009, each with respect to the corresponding “No SIRT5” samples.
FIG. 5 is graphs showing dependence of SIRT5 initial rate kinetics on the concentrations of Ac-Lys(Succ.)-AMC and Ac-Lys(Ac.)-AMC. Fifty μl desuccinylation or deacetylation reactions were performed as described earlier (FIG. 4), with the indicated concentrations of Ac-Lys(Succ.)-AMC or Ac-Lys(Ac.)-AMC and 1 mM NAD^+, for 20 min. at 37° C. Reactions with Ac-Lys(Succ.)-AMC contained 10 ng SIRT5 and those with Ac-Lys(Ac.)-AMC contained 5 SIRT5. Reactions were stopped and AMC cleaved from deacetylated or desuccinylated substrate by trypsin treatment as described earlier (FIG. 4). AMC fluorescence was read in a Synergy 2 plate-reading fluorimeter (BioTek) at wavelengths 360 nm (excitation)/460 nm (emission), Gain 40. Data represent the mean of the differences of three determinations with enzyme (10 ng or 5 SIRT5) from the mean of two no enzyme samples for each substrate concentration. Error bars are the standard deviations from those means. Fluorescence differences were converted to specific activities (pmol/min/μg) by measuring the fluorescence increase due to the addition a standard solution of AMC (5 μl of a […]).
FIG. 6 is a graph showing the dependence of SIRT5 initial rate kinetics of Ac-Lys(Succ.)-AMC desuccinylation on the concentration of NAD^+. Reaction conditions were as described for FIG. 5 but with a constant Ac-Lys(Succ.)-AMC concentration of 0.5 mM and the indicated concentrations of NAD^+. Data analysis and determination of kinetic parameters were as described (FIG. 5).
FIG. 12 is graphs showing that SIRT5 catalyzes NAD^+-dependent desuccinylation of (Ac-Lys(Succ.))2-R110 far more efficiently than NAD^+-dependent deacetylation of (Ac-Lys(Ac.))2-R110. Fifty μl reactions in Assay Buffer (50 mM Tris/HCl, pH 8.0, 137 mM NaCl, 2.7 mM KCl, 1 mM MgCl2, 1 mg/ml BSA) included 50 μM of either (Ac-Lys(Succ.))2-R110 or (Ac-Lys(Ac.))2-R110, and, where indicated, 500 μM NAD^+ and 5 μg recombinant human SIRT5 (Enzo Life Sciences Cat. # BML-SE555). […]

[1] = SIRT5, 50 μM substrate, 500 μM NAD^+

Compound | Dependence of SIRT5 initial rate on substrate concentration (1 mM NAD^+) | Activity [1] [pmol/min/µg] | Activity (pmol/min/μg) [1] | Fraction of substrate desuccinylated (5 μg SIRT5 (3 μM in 50 μl), 50 μM substrate, 60 min.) [%] | SIRT5/NAD^+ dependence of desuccinylation (5 μg SIRT5, 50 μM substrate, 500 μM NAD^+, 60 min.) | Desuccinylation relative to deacetylation of Ac-Arg-His-Lys-Lys(ε-acetyl)-AMC (5 μg SIRT5 per 50 μl, 50 μM substrate, 500 μM NAD^+, 60 min.) | kcat (varied substrate: Lysyl, 1 mM NAD^+) [s⁻¹] | kcat (varied substrate: NAD^+, constant 0.5 mM Ac-Lys(Succ.)-AMC) [s⁻¹]
CC(=O)NCCCCC(NC(C)=O)C(=O)Nc1ccc2c(C)cc(=O)oc2c1 (stereo not shown) [Ac-Lys(Ac.)-AMC, Ac-Lys(ε-acetyl)-AMC, reference compound] | remains linear over the concentration range of the assay | 0.0174 |  |  |  |  |  | 
Ac-Arg-His-Lys-Lys(ε-acetyl)-AMC (Ac-RHKK(Ac)-{AMC}; SMILES CC(=O)NCCCC[C@H](NC(=O)[C@H](CCCCN)NC(=O)[C@H](Cc1c[nH]cn1)NC(=O)[C@H](CCCNC(=N)N)NC(C)=O)C(=O)Nc1ccc2c(C)cc(=O)oc2c1) [Ac-RHKK(Ac)-AMC, p53 peptide fluorogenic deacetylase substrate, Cat. # BML-KI177, reference compound] |  |  | Ac-RHKK(Ac)-AMC/0.364 pmol/min/μg |  |  |  |  | 
CC(=O)N[C@@H](CCCCNC(=O)CCC(=O)O)C(=O)Nc1ccc2c(C)cc(=O)oc2c1 [Compound 1, N—(N^α-acetyl-L-Lysine(N^ε-succinyl))-AMC] | displays saturation kinetics | 115 |  | ~50 | entirely dependent on the presence of SIRT5 and NAD^+ | at least 250 fold | 0.26 | 0.29
